Measurements as given in patent US8609661B2, “Pyrimido-pyrrolo-quinoxalinedione inhibitors of cystic fibrosis transmembrane conductance regulator protein and uses therefor” (The Regents of the University of California, priority 2009, dated 2013).
Like-named read-outs stand apart in the source and are kept apart here.

Biological target: T1, human wildtype CFTR (Homo sapiens, UniProt P13569)
T1 construct: expressed in transfected cells; host or cells: Fischer rat thyroid (FRT) cells
Test: Fluorescence platereader assay of CFTR-mediated iodide influx (YFP quenching) in FRT cells
Assay type: cell-based
Conditions: for inhibition at 5 µM / inhibition at 25 µM: FRT; for IC50: apparent IC50 from concentration-inhibition data, fluorescence platereader assay
Description: A. Cell lines and compounds—Fischer rat thyroid (FRT) cells co-expressing human wildtype CFTR and the halide indicator YFP-H148Q/1152L were generated as described (see, e.g., Ma et al., J. Clin. Invest. 110:1651-1658 (2002)). Cells were plated in 96-well black-walled microplates (Corning Costar) at a density of 20,000 cells per well in Coon's modified F12 medium supplemented with 5% fetal calf serum, 2 mM L-glutamine, 100 U/mL penicillin, and 100 μg/ml streptomycin. Assays were performed at 48 h after plating the cells when the cells were just confluent. For some experiments, measurements were made using T84 human intestinal epithelial cells and for other experiments, measurements were obtained using primary cultures of human bronchial epithelial cells, which were obtained and grown essentially as previously described (see, e.g., 3 and 27).
B. Compound Screening—Assays were performed using an automated screening platform (Beckman) equipped with FLUOStar fluorescence platereaders (BMG Lab Technologies, Offenburg, Germany) as described (see Ma et al., supra). Each well of a 96-well plate containing FRT cells was washed 3 times in PBS (300 μL/wash), leaving 50 μL PBS. […] After 15 min, 96-well plates were transferred to a plate reader for fluorescence assay. Each well was assayed individually for CFTR-mediated iodide influx by recording fluorescence continuously (200 ms per point) for 2 s (baseline) and then for 10 s after rapid addition of 160 μL of isosmolar PBS in which 137 mM chloride was replaced by iodide. The initial rate of iodide influx was computed from fluorescence data by non-linear regression.
Collections of synthetic and natural compounds were screened according to the screening procedures described in Example 2. A cell-based fluorescence assay was used in which CFTR inhibitors were identified by reduced iodide influx in FRT cells co-expressing human CFTR and a YFP halide sensor. CFTR was maximally activated by a mixture of agonists having different activating mechanisms. Inhibition of iodide influx was observed as reduced YFP fluorescence quenching in response to rapid iodide addition to each well of 96-well plates. […]

[1] = Table 2, screening, 5 μM, read-out: % Inhibition at 5 μM
[2] = Table 2, screening, 25 μM, read-out: % Inhibition at 25 μM

T1 sequence (P13569 whole entry): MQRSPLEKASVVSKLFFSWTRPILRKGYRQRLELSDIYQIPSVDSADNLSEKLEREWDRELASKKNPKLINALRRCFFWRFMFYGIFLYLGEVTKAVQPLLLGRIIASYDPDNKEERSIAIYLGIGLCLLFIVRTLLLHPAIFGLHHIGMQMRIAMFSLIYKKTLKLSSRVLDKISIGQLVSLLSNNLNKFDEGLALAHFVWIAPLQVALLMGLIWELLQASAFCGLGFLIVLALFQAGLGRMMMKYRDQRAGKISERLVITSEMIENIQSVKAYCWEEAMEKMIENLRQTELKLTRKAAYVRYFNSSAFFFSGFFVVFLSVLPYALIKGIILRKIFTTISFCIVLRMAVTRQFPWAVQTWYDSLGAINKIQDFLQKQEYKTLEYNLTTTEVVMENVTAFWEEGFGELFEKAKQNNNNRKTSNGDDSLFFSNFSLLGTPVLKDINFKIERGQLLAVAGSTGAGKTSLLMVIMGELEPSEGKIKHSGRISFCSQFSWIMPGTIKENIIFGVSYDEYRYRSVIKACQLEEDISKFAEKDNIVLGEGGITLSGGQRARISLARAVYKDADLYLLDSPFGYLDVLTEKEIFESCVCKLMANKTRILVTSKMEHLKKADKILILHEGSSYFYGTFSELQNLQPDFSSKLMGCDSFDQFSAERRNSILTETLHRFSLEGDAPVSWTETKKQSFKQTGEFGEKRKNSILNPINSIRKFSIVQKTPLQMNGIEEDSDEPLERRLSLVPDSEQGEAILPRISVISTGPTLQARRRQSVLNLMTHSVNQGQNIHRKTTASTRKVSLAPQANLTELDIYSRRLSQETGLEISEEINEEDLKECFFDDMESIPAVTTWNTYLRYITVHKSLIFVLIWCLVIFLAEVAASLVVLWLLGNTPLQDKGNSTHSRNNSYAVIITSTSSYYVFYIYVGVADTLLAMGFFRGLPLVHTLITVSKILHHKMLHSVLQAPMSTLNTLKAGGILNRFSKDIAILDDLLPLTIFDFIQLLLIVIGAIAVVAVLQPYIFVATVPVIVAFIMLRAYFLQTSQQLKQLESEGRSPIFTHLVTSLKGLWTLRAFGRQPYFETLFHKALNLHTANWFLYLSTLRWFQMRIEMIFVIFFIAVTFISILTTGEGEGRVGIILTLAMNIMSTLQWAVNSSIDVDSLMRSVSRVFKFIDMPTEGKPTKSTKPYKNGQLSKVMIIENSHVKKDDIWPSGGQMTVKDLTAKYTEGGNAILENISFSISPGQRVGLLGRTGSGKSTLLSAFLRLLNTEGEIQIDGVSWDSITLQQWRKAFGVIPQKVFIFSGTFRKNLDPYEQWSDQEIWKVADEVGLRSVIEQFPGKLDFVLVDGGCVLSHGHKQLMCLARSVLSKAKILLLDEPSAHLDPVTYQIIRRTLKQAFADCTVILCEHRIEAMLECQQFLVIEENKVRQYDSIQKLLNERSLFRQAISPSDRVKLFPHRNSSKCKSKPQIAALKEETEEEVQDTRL

For `Cc1ccccc1-c1c2c(=O)n(C)c(=O)n(C)c2c2n1-c1ccccc1NC2c1ccc(O)c(O)c1` (stereo not shown), the inhibition at 5 µM [1] was < 10% and the inhibition at 25 µM [2] was 38%.

In the case of `COc1cc(O)ccc1C1Nc2ccccc2-n2c(-c3ccccc3F)c3c(=O)n(C)c(=O)n(C)c3c21` (stereo not shown), the inhibition at 5 µM [1] is reported as < 10% and the inhibition at 25 µM [2] is reported as 41%.

For `Cn1c(=O)c2c(-c3ccccc3)n3c(c2n(C)c1=O)C(c1cccc(O)c1O)Nc1ccccc1-3` (stereo not shown), the inhibition at 5 µM [1] was < 10% and the inhibition at 25 µM [2] was 38%.

`COc1ccc(-c2c3c(=O)n(C)c(=O)n(C)c3c3n2-c2ccccc2NC3c2cccc(F)c2)cc1` (stereo not shown) was tested, and the inhibition at 5 µM [1] was < 10% and the inhibition at 25 µM [2] was 37%.

In the case of `Cn1c(=O)c2c(-c3ccccc3F)n3c(c2n(C)c1=O)C(c1ccc(O)cc1O)Nc1ccccc1-3` (stereo not shown), the inhibition at 5 µM [1] is reported as < 10% and the inhibition at 25 µM [2] is reported as 36%.

With `COc1ccc(-c2c3c(=O)n(C)c(=O)n(C)c3c3n2-c2ccccc2NC3c2cccc(C)c2)cc1` (stereo not shown) the inhibition at 5 µM [1] was < 10% and the inhibition at 25 µM [2] was 35%.

With `COc1ccccc1C1Nc2cc(C)c(C)cc2-n2c(-c3ccccc3)c3c(=O)n(C)c(=O)n(C)c3c21` (stereo not shown) the inhibition at 5 µM [1] was < 10% and the inhibition at 25 µM [2] was 47%.

`COc1ccc(-c2c3c(=O)n(C)c(=O)n(C)c3c3n2-c2ccccc2NC3c2cccc(OC)c2)cc1` (stereo not shown) showed an inhibition at 5 µM [1] of 13% and an inhibition at 25 µM [2] of 47%.

With `CCOc1cc(C2Nc3ccccc3-n3c(-c4ccccc4)c4c(=O)n(C)c(=O)n(C)c4c32)ccc1O` (stereo not shown) the inhibition at 5 µM [1] was < 10% and the inhibition at 25 µM [2] was 47%.

With `COc1ccc(-c2c3c(=O)n(C)c(=O)n(C)c3c3n2-c2ccccc2NC3c2ccccc2Cl)cc1` (stereo not shown) the inhibition at 5 µM [1] was < 10% and the inhibition at 25 µM [2] was 47%.

`Cc1ccccc1-c1c2c(=O)n(C)c(=O)n(C)c2c2n1-c1ccccc1NC2c1ccc(C#N)cc1` (stereo not shown) was tested, and the inhibition at 5 µM [1] was < 10% and the inhibition at 25 µM [2] was 45%.

`Cn1c(=O)c2c(-c3ccccc3F)n3c(c2n(C)c1=O)C(c1ccc(Cl)cc1)Nc1ccccc1-3` (stereo not shown) was tested, and the inhibition at 5 µM [1] was < 10% and the inhibition at 25 µM [2] was 44%.

`Cc1cc2c(cc1C)-n1c(-c3ccccc3F)c3c(=O)n(C)c(=O)n(C)c3c1C(c1ccco1)N2` (stereo not shown) gave an inhibition at 5 µM [1] of 41% and an inhibition at 25 µM [2] of 44%.

In the case of `Cc1ccccc1C1Nc2ccccc2-n2c(-c3ccccc3)c3c(=O)n(C)c(=O)n(C)c3c21` (stereo not shown), the inhibition at 5 µM [1] is reported as 13% and the inhibition at 25 µM [2] is reported as 41%.

Molecule `Cc1cc2c(cc1C)-n1c(-c3ccccc3F)c3c(=O)n(C)c(=O)n(C)c3c1C(c1ccccc1F)N2` (stereo not shown) has an inhibition at 5 µM [1] of 23% and an inhibition at 25 µM [2] of 35%.

Work on `Cc1ccc(C2Nc3ccccc3-n3c(-c4ccccc4C)c4c(=O)n(C)c(=O)n(C)c4c32)cc1` (stereo not shown) yielded an inhibition at 5 µM [1] of 13% and an inhibition at 25 µM [2] of 38%.

With `Cn1c(=O)c2c(-c3ccc(Cl)cc3)n3c(c2n(C)c1=O)C(c1ccccc1)Nc1ccccc1-3` (stereo not shown) the inhibition at 5 µM [1] was < 10% and the inhibition at 25 µM [2] was 34%.

For `COc1ccc(C2Nc3ccccc3-n3c(-c4ccccc4F)c4c(=O)n(C)c(=O)n(C)c4c32)cc1` (stereo not shown), the inhibition at 5 µM [1] was < 10% and the inhibition at 25 µM [2] was 33%.

`COc1ccc(-c2c3c(=O)n(C)c(=O)n(C)c3c3n2-c2ccccc2NC3c2cccc(O)c2)cc1` (stereo not shown) was tested, and the inhibition at 5 µM [1] was < 10% and the inhibition at 25 µM [2] was 33%.

`C=CCc1cccc(C2Nc3ccccc3-n3c(-c4ccccc4)c4c(=O)n(C)c(=O)n(C)c4c32)c1O` (stereo not shown) was tested, and the inhibition at 5 µM [1] was < 10% and the inhibition at 25 µM [2] was 31%.

`Cc1ccc(-c2c3c(=O)n(C)c(=O)n(C)c3c3n2-c2ccccc2NC3c2cccc(F)c2F)cc1` (stereo not shown) gave an inhibition at 5 µM [1] of 27% and an inhibition at 25 µM [2] of 31%.

In the case of `COc1ccc(O)c(C2Nc3ccccc3-n3c(-c4ccccc4)c4c(=O)n(C)c(=O)n(C)c4c32)c1` (stereo not shown), the inhibition at 5 µM [1] is reported as < 10% and the inhibition at 25 µM [2] is reported as 33%.

In the case of `CCOc1ccc(C2Nc3ccccc3-n3c(-c4ccccc4C)c4c(=O)n(C)c(=O)n(C)c4c32)cc1` (stereo not shown), the inhibition at 5 µM [1] is reported as < 10% and the inhibition at 25 µM [2] is reported as 32%.

With `COc1cccc(C2Nc3ccccc3-n3c(-c4ccc(Cl)cc4)c4c(=O)n(C)c(=O)n(C)c4c32)c1` (stereo not shown) the inhibition at 5 µM [1] was < 10% and the inhibition at 25 µM [2] was 41%.

With `Cc1ccc(-c2c3c(=O)n(C)c(=O)n(C)c3c3n2-c2ccccc2NC3c2cccs2)cc1` (stereo not shown) the inhibition at 5 µM [1] was < 10% and the inhibition at 25 µM [2] was 35%.

Molecule `Cn1c(=O)c2c(-c3ccccc3)n3c(c2n(C)c1=O)C(c1cc([N+](=O)[O-])ccc1O)Nc1ccccc1-3` (stereo not shown) has an inhibition at 5 µM [1] of 12% and an inhibition at 25 µM [2] of 40%.

In the case of `COc1ccc(-c2c3c(=O)n(C)c(=O)n(C)c3c3n2-c2ccccc2NC3c2ccccc2F)cc1` (stereo not shown), the inhibition at 5 µM [1] is reported as < 10% and the inhibition at 25 µM [2] is reported as 39%.

`COc1ccc(-c2c3c(=O)n(C)c(=O)n(C)c3c3n2-c2ccccc2NC3c2ccccc2)cc1` (stereo not shown) was tested, and the inhibition at 5 µM [1] was < 10% and the inhibition at 25 µM [2] was 39%.

In the case of `COc1ccc(O)c(C2Nc3ccccc3-n3c(-c4ccccc4C)c4c(=O)n(C)c(=O)n(C)c4c32)c1` (stereo not shown), the inhibition at 5 µM [1] is reported as < 10% and the inhibition at 25 µM [2] is reported as 38%.

In the case of `Cc1ccc(C2Nc3ccccc3-n3c(-c4ccccc4)c4c(=O)n(C)c(=O)n(C)c4c32)cc1` (stereo not shown), the inhibition at 5 µM [1] is reported as < 10% and the inhibition at 25 µM [2] is reported as 38%.

For `Cn1c(=O)c2c(-c3ccccc3)n3c(c2n(C)c1=O)C(c1ccc(O)cc1O)Nc1ccccc1-3` (stereo not shown), the inhibition at 5 µM [1] was < 10% and the inhibition at 25 µM [2] was 35%.

For `COc1ccc(-c2c3c(=O)n(C)c(=O)n(C)c3c3n2-c2ccccc2NC3c2cccs2)cc1` (stereo not shown), the inhibition at 5 µM [1] was < 10% and the inhibition at 25 µM [2] was 34%.

With `COc1cccc(C2Nc3ccccc3-n3c(-c4cccc(C)c4)c4c(=O)n(C)c(=O)n(C)c4c32)c1O` (stereo not shown) the inhibition at 5 µM [1] was < 10% and the inhibition at 25 µM [2] was 31%.

`Cc1ccccc1-c1c2c(=O)n(C)c(=O)n(C)c2c2n1-c1ccccc1NC2c1cccc(O)c1O` (stereo not shown) was tested, and the inhibition at 5 µM [1] was < 10% and the inhibition at 25 µM [2] was 30%.

With `COc1ccc(C2Nc3ccccc3-n3c(-c4ccc(Cl)cc4)c4c(=O)n(C)c(=O)n(C)c4c32)cc1` (stereo not shown) the inhibition at 5 µM [1] was < 10% and the inhibition at 25 µM [2] was 31%.

With `Cc1cccc(-c2c3c(=O)n(C)c(=O)n(C)c3c3n2-c2ccccc2NC3c2ccc(C)o2)c1` (stereo not shown) [PPQ-101, 7,9-Dimethyl-11-(3-methylphenyl)-6-(5-methylfuran-2-yl)-5,6-dihydro-pyrimido[4′,5′-3,4]pyrrolo[1,2-a]quinoxaline-8,10-(7H,9H)-dione] the inhibition at 5 µM [1] was > 95%, the inhibition at 25 µM [2] was > 95% and the IC50 was 700 nM.

In the case of `Cc1ccc(C(=O)Nc2ccccc2-n2cc3c(c2-c2ccccc2)c(=O)n(C)c(=O)n3C)o1` [PPQ-102b, N-(2-(1,3-dimethyl-2,4-dioxo-5-phenyl-3,4-dihydro-1H-pyrrolo[3,4-d]pyrimidin-6(2H)-yl)phenyl)-5-methylfuran-2-carboxamide], the “CFTR inhibition activity” value (structure-activity analysis) is reported as “abolished CFTR inhibition activity”.

With `Cc1ccc(C2Nc3ccccc3-n3c(-c4ccccc4C)c4c(=O)n(C)c(=O)n(C)c4c32)o1` (stereo not shown) [PPQ-103, 7,9-Dimethyl-11-(2-methylphenyl)-6-(5-methylfuran-2-yl)-5,6-dihydro-pyrimido[4′,5′-3,4]pyrrolo[1,2-a]quinoxaline-8,10-(7H,9H)-dione] the inhibition at 5 µM [1] was 63%, the inhibition at 25 µM [2] was > 95% and the IC50 was 800 nM.

Molecule `Cc1ccc(C2Nc3cc(C)c(C)cc3-n3c(-c4ccccc4)c4c(=O)n(C)c(=O)n(C)c4c32)o1` (stereo not shown) [PPQ-104, 2,3,7,9-Tetramethyl-11-phenyl-6-(5-methylfuran-2-yl)-5,6-dihydro-pyrimido[4′,5′-3,4]pyrrolo[1,2-a]quinoxaline-8,10-(7H,9H)-dione] has an inhibition at 5 µM (read-out: % inhibition at 25/5 μM (5 μM value), Table 1, 5 μM compound) of 84%, an inhibition at 25 µM (read-out: % inhibition at 25/5 μM (25 μM value), Table 1, 25 μM compound) of 90% and an inhibition at 5 µM [1] of 84%. The inhibition at 25 µM [2] was 90% and the IC50 was 800 nM.

`Cc1ccc(C2Nc3cc(C)c(C)cc3-n3c(-c4ccccc4F)c4c(=O)n(C)c(=O)n(C)c4c32)o1` (stereo not shown) [PPQ-105, 2,3,7,9-Tetramethyl-11-(2-fluorophenyl)-6-(5-methylfuran-2-yl)-5,6-dihydro-pyrimido[4′,5′-3,4]pyrrolo[1,2-a]quinoxaline-8,10-(7H,9H)-dione] showed an inhibition at 5 µM [1] of 78%, an inhibition at 25 µM [2] of 78% and an IC50 of 1500 nM.

Molecule `Cc1cccc(-c2c3c(=O)n(C)c(=O)n(C)c3c3n2-c2ccccc2NC3c2ccco2)c1` (stereo not shown) [PPQ-106, 7,9-Dimethyl-11-(3-methylphenyl)-6-(furan-2-yl)-5,6-dihydro-pyrimido[4′,5′-3,4]pyrrolo[1,2-a]quinoxaline-8,10-(7H,9H)-dione] has an inhibition at 5 µM [1] of 49% and an inhibition at 25 µM [2] of 96%.

`Cc1cc2c(cc1C)-n1c(-c3ccccc3)c3c(=O)n(C)c(=O)n(C)c3c1C(c1ccco1)N2` (stereo not shown) [PPQ-107, 2,3,7,9-Tetramethyl-11-phenyl-6-(furan-2-yl)-5,6-dihydro-pyrimido[4′,5′-3,4]pyrrolo[1,2-a]quinoxaline-8,10-(7H,9H)-dione] was tested, and the inhibition at 5 µM [1] was 24% and the inhibition at 25 µM [2] was 87%.

`Cc1ccccc1-c1c2c(=O)n(C)c(=O)n(C)c2c2n1-c1ccccc1NC2c1ccco1` (stereo not shown) [PPQ-108, 7,9-Dimethyl-11-(2-methylphenyl)-6-(furan-2-yl)-5,6-dihydro-pyrimido[4′,5′-3,4]pyrrolo[1,2-a]quinoxaline-8,10-(7H,9H)-dione] gave an inhibition at 5 µM [1] of 18% and an inhibition at 25 µM [2] of 70%.
